17 compounds from patent US11873298B2, “Compounds and uses thereof” (JANSSEN PHARMACEUTICA NV, priority 2017, dated 2024) can be followed below.

Structures are written as SMILES.

Assay [1] addresses T1, Ole1 (Saccharomyces cerevisiae, UniProt P21147).
T1 construct: expressed in transfected cells; host or cells: S. cerevisiae ole1Δ strain (W303 pdr1Δ pdr3Δ background), plasmid pRS316 with TDH3 promoter and CYC1 terminator
T1 sequence (P21147 1-510): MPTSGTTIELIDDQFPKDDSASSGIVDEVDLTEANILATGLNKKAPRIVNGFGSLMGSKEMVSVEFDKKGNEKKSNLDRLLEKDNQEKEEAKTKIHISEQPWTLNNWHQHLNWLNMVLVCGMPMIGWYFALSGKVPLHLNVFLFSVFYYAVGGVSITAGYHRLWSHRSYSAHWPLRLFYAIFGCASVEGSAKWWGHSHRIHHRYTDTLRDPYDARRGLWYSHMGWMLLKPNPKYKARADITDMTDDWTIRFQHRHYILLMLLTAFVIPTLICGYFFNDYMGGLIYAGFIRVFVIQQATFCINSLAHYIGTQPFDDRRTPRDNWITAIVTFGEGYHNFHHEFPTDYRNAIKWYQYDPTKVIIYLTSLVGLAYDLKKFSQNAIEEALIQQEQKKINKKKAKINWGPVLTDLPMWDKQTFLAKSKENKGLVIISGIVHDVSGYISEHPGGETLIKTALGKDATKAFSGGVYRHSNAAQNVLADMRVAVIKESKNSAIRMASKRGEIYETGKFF
Kind of assay: Growth inhibition of yeast strain expressing Ole1 as sole desaturase. The conditions noted are these: yeast strain expressing Ole1 as sole desaturase. Type of assay: cell-based. Summed up: (§1)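 Plasmid-complemented ole1Δ yeast, drug-pump deleted (pdr1Δ pdr3Δ), depend solely on the introduced Ole1, SCD1 or SCD5 desaturase. Compounds are added from DMSO to cells in uracil-free galactose medium, 2× density 0.02, and OD600 is read after 24 h or 40 h respectively.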

The target of assay [2] is T2, SCD1 (Homo sapiens, UniProt O00767).
T2 construct: host or cells: S. cerevisiae ole1Δ strain (W303 pdr1Δ pdr3Δ background), plasmid pRS316 with TDH3 promoter and CYC1 terminator
T2 sequence (O00767 1-359): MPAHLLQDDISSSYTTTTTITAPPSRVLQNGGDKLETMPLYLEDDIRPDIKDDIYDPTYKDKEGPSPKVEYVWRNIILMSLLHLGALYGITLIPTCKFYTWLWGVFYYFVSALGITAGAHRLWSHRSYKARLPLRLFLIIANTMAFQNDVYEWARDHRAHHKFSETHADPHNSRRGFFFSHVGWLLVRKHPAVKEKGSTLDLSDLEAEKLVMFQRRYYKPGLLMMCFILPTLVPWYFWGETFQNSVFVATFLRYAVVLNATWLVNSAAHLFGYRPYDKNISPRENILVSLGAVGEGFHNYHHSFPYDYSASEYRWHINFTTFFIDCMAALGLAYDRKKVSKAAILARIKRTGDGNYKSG
Kind of assay: Growth inhibition of humanized yeast strain expressing SCD1 as sole desaturase. Format: cell-based. The conditions noted are these: humanized yeast strain expressing SCD1. The method, boiled down:
as §1

For assay [3], the target named is T3, SCD5 (Homo sapiens, UniProt Q86SK9).
T3 construct: host or cells: S. cerevisiae ole1Δ strain (W303 pdr1Δ pdr3Δ background), plasmid pRS316 with TDH3 promoter and CYC1 terminator
T3 sequence (Q86SK9 1-330): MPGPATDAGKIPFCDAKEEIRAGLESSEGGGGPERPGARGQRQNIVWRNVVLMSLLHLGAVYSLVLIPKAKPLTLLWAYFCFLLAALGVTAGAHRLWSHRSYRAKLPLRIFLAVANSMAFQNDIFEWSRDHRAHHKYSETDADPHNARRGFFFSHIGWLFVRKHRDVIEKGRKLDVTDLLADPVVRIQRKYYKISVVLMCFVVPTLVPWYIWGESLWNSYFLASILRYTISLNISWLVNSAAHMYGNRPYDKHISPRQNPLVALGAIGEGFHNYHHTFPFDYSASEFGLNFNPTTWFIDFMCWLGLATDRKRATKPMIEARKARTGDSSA
Briefly: Growth inhibition of humanized yeast strain expressing SCD5 as sole desaturase. Format: cell-based. The conditions noted are these: humanized yeast strain expressing SCD5. Summed up: as §1

Assay [4] relates to yeast strains expressing the human ApoE4. Briefly: Yeast ApoE4 toxicity rescue assay (OD600 growth). Conditions: 24 h; for EC50: read-out: ApoE4 EC50; for Emax: read-out: ApoE4 Emax.
From the text: The induced expression of α-synuclein and ApoE4 confers cytotoxicity, thus enabling the identification of compounds that can restore cell viability. This instantaneous/synchronous induction of α-synuclein and ApoE4 can be achieved due to the following expression control. In glucose-containing media, gene expression from the GAL1 promoter is ‘off’ and actively repressed by additional epigenetic factors. In raffinose, expression is ‘off’, but the promoter not actively repressed. Upon transition to galactose-containing media, the promoter is instantaneously turned ‘on’ to achieve robust and synchronous induction of α-synuclein or ApoE4 expression. This highly regulated induction provides a robust window for the determination of both efficacy (amplitude of protective effect) and potency (concentration of protective effect) of cytoprotective compounds.
Re-suspended compound stocks were subsequently arrayed into 384 well compound plates using automated pipetting. All other wells not receiving stock compound were filled with 10 μL of 100% DMSO using an automated plate filler (Multidrop Combi). An 11 point, 2-fold serial dilution was then performed using the robotic platform. Compound assay plates were covered with foil and stored at −20° C. until use.
Each strain was handled according to standard protocols and cultured in media composed of CSM (complete synthetic media), YNB (yeast nitrogenous base), and a 2% (w/v) carbon source (either glucose, raffinose, or galactose).
In a standard yeast assay, a single-use aliquot of cells was thawed on ice and diluted into CSM/glucose (5 mL). Cultures were grown for 8 hours at 30° C. This pre-growth enables the yeast to exit the thaw and begin to grow without expressing aSyn or ApoE4. After 8 hours, cell density (OD600) was determined and cultures diluted to an OD600 of 0.01 in CSM/raffinose for an overnight culture phase at 30° C. During this period, the active glucose repression of the GAL1 promoter was relieved; however, expression of the α-Syn/ApoE4 genes were not yet induced. After ˜16 hours of growth, cultures attain an OD600 of 0.4-0.8 and were ready to apply to assay plates containing compound.
Compound profiling assays were executed in clear-bottom 384 well plates. First, compound plates were thawed at room temperature for 45′, centrifuged at 1,000×g for 1 minute, and the foil removed. Clear 384 well assay plates were then filled with 15 μL of CSM/galactose. […] The pin tool was washed iteratively with both 50% DMSO and 100% ethanol between each assay plate. After delivering compound to each assay plate, the overnight CSM/raffinose aSyn or ApoE4 cultures were added at a 2X cell density (0.04 for aSyn and 0.08 for ApoE4) in CSM/galactose to achieve a final assay OD600 of 0.02 and 0.04 for aSyn and ApoE, respectively. The cultures (15 μL per well) were then dispensed to the compound -containing 384 well assay plates using an automated plate filler. Plates were incubated in a humidified 30° C. incubator for 40 or 24 hours for aSyn and ApoE4, respectively. The ODsoo of each assay plate was then read with a microplate reader (e.g., Perkin Elmer Envision).
The efficacy and potency of compounds were calculated according to the following. Raw data (OD600 values) were first background corrected to account for OD600 contributed by the plate and media itself. The efficacy (percent above DMSO, herein referred to as “Emax”) was calculated according to the equation: (Experimental well−DMSO control well)/(DMSO control well)*100. […] Normalized dose-response data was fit with a logistic regression curve using Spotfire (TIBCO), or similar curve-fitting software package. EC50 values were then reported along with EMax to provide both efficacy and potency measures for each analog and enable further compound design.
Assay [5] deals with yeast strains expressing the human α-synuclein. Briefly: Yeast α-synuclein toxicity rescue assay (OD600 growth). The conditions noted are these: 40 h; for EC50: read-out: α-Syn EC50; for Emax: read-out: α-Syn Emax.

Regarding `CCOc1ccc(-c2noc(C3CCN(C(=O)[C@H]4CC(=O)N(c5ccccc5)C4)CC3)n2)cc1OC` [compound 85], the IC50 in assay [1], in assay [2] and in assay [3] was over 45 µM throughout. The EC50 stood at 17 µM in assay [4] and 12.6 µM in assay [5]. Moreover, the Emax in assay [4] was determined as 602%; in assay [5] it was 486%.

On to `COc1ccc(-c2noc(C3CCN(C(=O)N4CCCCC4)CC3)n2)cc1OC` [Compound 54], for which, in assay [1], the IC50 was over 45 µM and the “OLE1 % Max Inhibition” value came to 85.34%. In assay [2], the IC50 is over 45 µM and the “SCD1 % Max Inhibition” value was determined as 82.41%. Moreover, in assay [3], the 50% inhibitory concentration (IC50) was over 45 µM and the “SCD5 % Max Inhibition” value is reported as 47.60%. Moreover, in assay [4], the EC50 is 17.3 µM and the Emax worked out at 240%. Besides, in assay [5], the EC50 stood at 9.1 µM and the Emax worked out at 95%.

For `COc1ccc(-c2noc(C3CCN(C(=O)CNC(=O)c4ccccc4Cl)CC3)n2)cc1OC` [compound 25], the IC50 was over 45 µM in assay [1], over 45 µM in assay [2] and 39.4 µM in assay [3]. Besides, the results for the EC50 in assay [4] and in assay [5] were 1.85 µM and 0.751 µM, respectively. Also, the Emax in assay [4] is 889%; in assay [5], 619%.

Turning to `CCOc1ccc(-c2noc(C3CCN(C(=O)CNC(=O)c4ccccc4)CC3)n2)cc1Br` [compound 99], the IC50 in assay [1], in assay [2] and in assay [3] was over 45 µM each time. For the same compound, the concentration giving a half-maximal response (EC50) in assay [4] was 2.75 µM; in assay [5], 1.03 µM. For the same compound, the figures for the Emax in assay [4] and in assay [5] were 663% and 209%, respectively.

For `COc1ccc(-c2noc(N3CCC(C(=O)NCCc4ccccc4)CC3)n2)cc1OC` [Compound 49], in assay [1], the IC50 was over 45 µM and the “OLE1 % Max Inhibition” value stood at 34.89%. For the same compound, in assay [2], the IC50 is over 45 µM and the “SCD1 % Max Inhibition” value is reported as 61.29%. For the same compound, in assay [3], the IC50 was over 45 µM and the “SCD5 % Max Inhibition” value worked out at 63.18%. In assay [4], the EC50 is 4.34 µM and the Emax is 942%. In assay [5], the EC50 was 1.47 µM and the Emax was determined as 636%.

`COc1ccc(-c2noc(C3CCN(C(=O)CNC(c4ccccc4)C(F)(F)F)CC3)n2)cc1OC` (centres unmarked) [Compound 34]: in assay [1], the IC50 was over 45 µM and the “OLE1 % Max Inhibition” value is listed as 76.89%. Further, in assay [2], the IC50 is over 45 µM and the “SCD1 % Max Inhibition” value was 42.55%. Besides, in assay [3], the IC50 is over 45 µM and the “SCD5 % Max Inhibition” value was 5.37%. The Emax in assay [4] amounted to 596%. In assay [5], the EC50 came out at 11.1 µM and the Emax is 562%.

For the compound `CCOc1ccc(-c2noc(C3CCN(C(=O)CNC(=O)c4ccccc4)CC3)n2)cc1F` [compound 97], the results for the IC50 in assay [1], in assay [2] and in assay [3] were over 45 µM, over 45 µM and 30 µM, respectively. For the same compound, the concentration for a half-maximal effect (EC50) in assay [4] was determined as 3.88 µM; in assay [5], 0.707 µM. In addition, the results for the Emax in assay [4] and in assay [5] were 704% and 132%, respectively.

Turning to `O=C(NCC(=O)N1CCC(c2nc(-c3ccccc3)no2)CC1)c1ccccc1` [compound 9], the IC50 in assay [1], in assay [2] and in assay [3] was over 45 µM in each case. Further, the Emax in assay [4] turned out to be 301%; in assay [5] it was 167%. Moreover, in assay [5], the concentration for a half-maximal effect (EC50) was 12.1 µM.

With `COc1ccc(-c2noc(C3CCN(C(=O)[C@H](C)NC(=O)c4ccccc4)CC3)n2)cc1OC` (single isomer, unassigned) [Compound 59], in assay [1], the IC50 was over 45 µM and the “OLE1 % Max Inhibition” value was found to be 105.25%. Also, in assay [2], the 50% inhibitory concentration (IC50) is over 45 µM and the “SCD1 % Max Inhibition” value is 79.13%. Moreover, in assay [3], the IC50 is over 45 µM and the “SCD5 % Max Inhibition” value amounted to 59.32%. Moreover, the Emax in assay [4] came to 47%. In assay [5], the EC50 amounted to 15.7 µM and the Emax was found to be 82%.

On to `Cc1cccc(-c2noc(C3CCN(C(=O)C4CC(=O)N(c5ccc(C)c(C)c5)C4)CC3)n2)c1` (centres unmarked) [compound 3], for which the IC50 in assay [1] was 38.5 µM; in assay [2], over 45 µM; in assay [3], over 45 µM. Further, the Emax in assay [4] turned out to be 200%; in assay [5] it was 307%. Further, the EC50 in assay [5] was 17.8 µM.

Consider `Cc1ccc(-c2noc(C3CCN(C(=O)[C@@H]4CC(=O)N(c5ccc(C)c(C)c5)C4)CC3)n2)cc1` [Compound 62], for which, in assay [1], the IC50 is over 45 µM and the “OLE1 % Max Inhibition” value was determined as 86.77%. For the same compound, in assay [2], the IC50 was over 45 µM and the “SCD1 % Max Inhibition” value came out at 28.73%. Moreover, in assay [3], the 50% inhibitory concentration (IC50) is over 45 µM and the “SCD5 % Max Inhibition” value is reported as 5.75%. In assay [4], the EC50 came out at 21.4 µM and the Emax turned out to be 430%. Further, in assay [5], the EC50 is 21.7 µM and the Emax was determined as 204%.

As to `Cc1ccc(-c2noc(C3CCN(C(=O)[C@H]4CC(=O)N(c5ccc(C)c(C)c5)C4)CC3)n2)cc1` (single isomer, unassigned) [Compound 61], in assay [1], the IC50 turned out to be 40.9 µM and the “OLE1 % Max Inhibition” value stood at 71.50%. For the same compound, in assay [2], the IC50 was over 45 µM and the “SCD1 % Max Inhibition” value is reported as 2.37%. Besides, in assay [3], the IC50 was over 45 µM and the “SCD5 % Max Inhibition” value is listed as 13.18%. Besides, in assay [4], the EC50 came out at 19.4 µM and the Emax stood at 465%. Further, in assay [5], the EC50 is 19.7 µM and the Emax is 229%.

With `COc1cccc(-c2noc(C3CCN(C(=O)CNC(=O)c4ccc(C)c(C)c4)CC3)n2)c1` [compound 17], the IC50 in assay [1], in assay [2] and in assay [3] was over 45 µM each time. Besides, the Emax in assay [4] stood at 246%; in assay [5] it was 330%. For the same compound, the EC50 in assay [5] is 17.4 µM.

`COc1ccc(-c2noc(C3CCN(C(=O)CNC(=O)c4cccc(C)c4)CC3)n2)cc1OC` [compound 14]: the IC50 in assay [1] was over 45 µM; in assay [2], over 45 µM; in assay [3], 27.5 µM. In addition, the EC50 in assay [4] stood at 1.83 µM; in assay [5] it was 1.16 µM. Also, the Emax is 771% in assay [4] and 463% in assay [5].

Regarding `COc1cccc(-c2noc(C3CCN(C(=O)C4CC(=O)N(c5ccc(C)c(C)c5)C4)CC3)n2)c1` (centres unmarked) [compound 21], the values for the IC50 in assay [1], in assay [2] and in assay [3] were over 45 µM, 39.9 µM and over 45 µM, respectively. Also, the values for the Emax in assay [4] and in assay [5] were 447% and 276%, respectively.

Regarding `COc1ccc(-c2nsc(C3CCN(C(=O)CNC(=O)c4ccccc4)CC3)n2)cc1OC` [Compound 35], in assay [1], the IC50 is over 45 µM and the “OLE1 % Max Inhibition” value was determined as 3.66%. In addition, in assay [2], the IC50 was over 45 µM and the “SCD1 % Max Inhibition” value is recorded as 79.23%. In assay [3], the IC50 was over 45 µM and the “SCD5 % Max Inhibition” value amounted to 68.57%. Further, in assay [4], the EC50 is 1.12 µM and the Emax was determined as 911%. In assay [5], the half-maximal effective concentration (EC50) amounted to 0.052 µM and the Emax was found to be 626%.

For `COc1cccc(-c2noc(C3CCN(C(=O)[C@@H]4CC(=O)N(c5ccc(C)c(C)c5)C4)CC3)n2)c1` (single isomer, unassigned) [compound 69], the 50% inhibitory concentration (IC50) in assay [1], in assay [2] and in assay [3] was over 45 µM in each case. The Emax was 387% in assay [4] and 294% in assay [5].
